Measurements reported in patent US9732075B2, “Benzimidazole-proline derivatives” (IDORSIA PHARMACEUTICALS LTD, priority 2012, dated 2017).

Legend:
[1] = molecular target: human orexin-1 receptor (Homo sapiens (Human), UniProt O43613); test: In vitro assay: intracellular calcium measurements (FLIPR), antagonistic activity; format: cell-based; settings: CHO cells expressing human orexin-1 receptor, orexin-A agonist, geometric mean, read-out: IC50 Ox1
Procedure, shortened: (§1)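 Read-out: FLIPR fluo-4 calcium peak height in CHO cells bearing human orexin-1 or orexin-2 receptor, relative to orexin-A (approx. EC70) with vehicle. Antagonist preincubation 120 min; agonist orexin-A at 3 nM final. IC50 possibly normalized to an on-plate reference compound.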

[2] = molecular target: human orexin-2 receptor (Homo sapiens (Human), UniProt O43614); test: as above; format: cell-based; settings: CHO cells expressing human orexin-2 receptor, orexin-A agonist, geometric mean, read-out: IC50 Ox2
human orexin-2 receptor, sequence (O43614 whole entry): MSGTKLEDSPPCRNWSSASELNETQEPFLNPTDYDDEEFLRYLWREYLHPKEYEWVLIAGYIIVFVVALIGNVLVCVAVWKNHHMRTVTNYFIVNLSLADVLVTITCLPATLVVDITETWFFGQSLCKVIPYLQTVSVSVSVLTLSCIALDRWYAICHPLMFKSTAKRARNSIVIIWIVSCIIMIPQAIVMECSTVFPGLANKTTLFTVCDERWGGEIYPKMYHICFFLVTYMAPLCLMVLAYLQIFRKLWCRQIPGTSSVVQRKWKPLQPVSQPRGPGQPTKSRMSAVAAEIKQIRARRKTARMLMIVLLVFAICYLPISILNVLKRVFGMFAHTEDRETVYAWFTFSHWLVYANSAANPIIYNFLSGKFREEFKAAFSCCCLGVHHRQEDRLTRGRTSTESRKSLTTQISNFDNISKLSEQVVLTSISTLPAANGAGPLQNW
Procedure, shortened: as §1

human orexin-1 receptor, sequence (O43613 whole entry): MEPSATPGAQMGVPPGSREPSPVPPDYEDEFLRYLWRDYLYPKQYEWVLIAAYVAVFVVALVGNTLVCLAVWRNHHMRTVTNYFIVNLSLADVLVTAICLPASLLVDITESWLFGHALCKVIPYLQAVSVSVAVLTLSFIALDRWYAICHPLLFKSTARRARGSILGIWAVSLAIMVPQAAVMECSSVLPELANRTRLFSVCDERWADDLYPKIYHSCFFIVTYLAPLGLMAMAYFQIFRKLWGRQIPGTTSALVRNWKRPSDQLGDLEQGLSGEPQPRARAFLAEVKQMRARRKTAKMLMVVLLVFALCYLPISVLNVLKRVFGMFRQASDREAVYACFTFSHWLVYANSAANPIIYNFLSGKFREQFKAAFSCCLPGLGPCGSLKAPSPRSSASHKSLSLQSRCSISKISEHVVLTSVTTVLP

IC50 [1] [nM]	IC50 [2] [nM]	SMILES
8	131	Cc1c(Cl)ccc2[nH]c([C@]3(C)CCCN3C(=O)c3nc(-c4cccc(F)c4)sc3-c3ccc(F)cc3)nc12 [Ex. 5.234]
5	16.5	Cc1cc(C(=O)N2CCC[C@@]2(C)c2nc3cc(OC(F)(F)F)ccc3[nH]2)c(-n2nccn2)cc1C [Ex. 5.235]
26	173	Cc1ccc(-c2ccccc2)c(C(=O)N2CCC[C@@]2(C)c2nc3cc(OC(F)(F)F)ccc3[nH]2)c1 [Ex. 5.236]
58	223	COc1ccc(-n2nccn2)c(C(=O)N2CCC[C@@]2(C)c2nc3cc(OC(F)(F)F)ccc3[nH]2)c1 [Ex. 5.237]
23	91	Cc1ccc(C(=O)N2CCC[C@@]2(C)c2nc3cc(OC(F)(F)F)ccc3[nH]2)c(-n2nccn2)c1 [Ex. 5.238]
35	594	Cc1ccc(-c2ccccn2)c(C(=O)N2CCC[C@@]2(C)c2nc3cc(OC(F)(F)F)ccc3[nH]2)c1 [Ex. 5.239]
38	232	Cc1ccc(C(=O)N2CCC[C@@]2(C)c2nc3cc(OC(F)(F)F)ccc3[nH]2)c(-c2ccccn2)c1 [Ex. 5.240]
54	1000	Cc1ccc(C(=O)N2CCC[C@@]2(C)c2nc3cc(OC(F)(F)F)ccc3[nH]2)c(-c2cccnc2)c1 [Ex. 5.241]
56	401	Cc1ccc(C(=O)N2CCC[C@@]2(C)c2nc3cc(OC(F)(F)F)ccc3[nH]2)c(-c2ccccc2)c1 [Ex. 5.242]
88	1120	Cc1nc(C(=O)N2CCC[C@@]2(C)c2nc3cc(OC(F)(F)F)ccc3[nH]2)c(-c2ccccc2C)s1 [Ex. 5.243]
62	641	Cc1nc(C(=O)N2CCC[C@@]2(C)c2nc3cc(OC(F)(F)F)ccc3[nH]2)c(-c2cccc(Cl)c2Cl)s1 [Ex. 5.244]
14	80	Cc1nc(C(=O)N2CCC[C@@]2(C)c2nc3cc(OC(F)(F)F)ccc3[nH]2)c(-c2ccc(C)c(C)c2)s1 [Ex. 5.245]
28	533	Cc1nc(C(=O)N2CCC[C@@]2(C)c2nc3cc(OC(F)(F)F)ccc3[nH]2)c(-c2cc(F)cc(F)c2)s1 [Ex. 5.246]
10	136	COc1cccc(-c2sc(C)nc2C(=O)N2CCC[C@@]2(C)c2nc3cc(OC(F)(F)F)ccc3[nH]2)c1 [Ex. 5.247]
22	494	Cc1nc(C(=O)N2CCC[C@@]2(C)c2nc3cc(OC(F)(F)F)ccc3[nH]2)c(-c2ccc(F)cc2)s1 [Ex. 5.248]
38	53	COc1cccc(C#Cc2ccccc2C(=O)N2CCC[C@@]2(C)c2nc3c(C)cc(Br)cc3[nH]2)c1 [Ex. 5.249]
184	992	COc1cccc(C#Cc2ccccc2C(=O)N2CCC[C@@]2(C)c2nc3cc(C(F)(F)F)ccc3[nH]2)c1 [Ex. 5.250]
13	774	Cc1c(Cl)ccc2[nH]c([C@]3(C)CCCN3C(=O)c3nc(-c4cccc(F)c4F)sc3-c3ccc(F)cc3)nc12 [Ex. 5.251]
20	1640	Cc1cc(-c2nc(C(=O)N3CCC[C@@]3(C)c3nc4c(C)c(Cl)ccc4[nH]3)c(-c3ccc(F)cc3)s2)ccc1F [Ex. 5.252]
12	1190	Cc1ccc(-c2nc(C(=O)N3CCC[C@@]3(C)c3nc4c(C)c(Cl)ccc4[nH]3)c(-c3ccc(F)cc3)s2)c(F)c1 [Ex. 5.253]
39	9270	Cc1ccc(-c2nc(C(=O)N3CCC[C@@]3(C)c3nc4c(C)c(Cl)ccc4[nH]3)c(-c3ccc(F)cc3)s2)cc1C [Ex. 5.254]

IC50 [1] [nM]	IC50 [2] [nM]	SMILES
1	145	Cc1c(Cl)ccc2[nH]c([C@]3(C)CCCN3C(=O)c3nc(-c4cccc(C#N)c4)sc3-c3ccc(F)cc3)nc12 [Ex. 5.255]
13	402	Cc1c(Cl)ccc2[nH]c([C@]3(C)CCCN3C(=O)c3nc(-c4ccccc4Cl)sc3-c3ccc(F)cc3)nc12 [Ex. 5.256]
13	329	Cc1c(Cl)ccc2[nH]c([C@]3(C)CCCN3C(=O)c3nc(-c4cccc(Cl)c4)sc3-c3ccc(F)cc3)nc12 [Ex. 5.257]
36	6520	Cc1ccc(-c2nc(C(=O)N3CCC[C@@]3(C)c3nc4c(C)c(Cl)ccc4[nH]3)c(-c3ccc(F)cc3)s2)cc1Cl [Ex. 5.258]
29	4660	Cc1cc(F)ccc1-c1nc(C(=O)N2CCC[C@@]2(C)c2nc3c(C)c(Cl)ccc3[nH]2)c(-c2ccc(F)cc2)s1 [Ex. 5.259]
20	2870	COc1cc(F)ccc1-c1nc(C(=O)N2CCC[C@@]2(C)c2nc3c(C)c(Cl)ccc3[nH]2)c(-c2ccc(F)cc2)s1 [Ex. 5.260]
4	466	Cc1c(Cl)ccc2[nH]c([C@]3(C)CCCN3C(=O)c3nc(-c4cc(F)ccc4F)sc3-c3ccc(F)cc3)nc12 [Ex. 5.261]
113	1	C[C@@]1(c2nc3cc(C(F)(F)F)ccc3[nH]2)CCCN1C(=O)c1cc(Br)ccc1-c1ccccc1 [Ex. 5.262]
25	65	Cc1cc(C(=O)N2CCC[C@@]2(C)c2nc3c(C)c(Cl)ccc3[nH]2)c(-c2ccccc2)cn1 [Ex. 5.264]
9	32	C[C@@]1(c2nc3cc(C(F)(F)F)ccc3[nH]2)CCCN1C(=O)c1cc(-c2cccnc2)ccc1-c1ccccc1 [Ex. 5.265]
1	1	Cc1ccc(-n2nccn2)c(C(=O)N2CCC[C@@]2(C)c2nc3c(C)c(C)c(Br)cc3[nH]2)c1 [Ex. 5.266]
12	105	Cc1ccc(C(=O)N2CCC[C@@]2(C)c2nc3c(C)c(C)c(Br)cc3[nH]2)c(-n2nccn2)c1C [Ex. 5.267]
15	22	Cc1c(Br)cc2[nH]c([C@]3(C)CCCN3C(=O)c3ccccc3-c3ccccc3)nc2c1C [Ex. 5.269]
7	9	Cc1ccc(-c2ccccc2)c(C(=O)N2CCC[C@@]2(C)c2nc3c(C)c(C)c(Br)cc3[nH]2)c1 [Ex. 5.270]
5	6	Cc1nc(C(=O)N2CCC[C@@]2(C)c2nc3c(C)c(C)c(Br)cc3[nH]2)c(-c2ccccc2C)s1 [Ex. 5.271]
8	12	Cc1nc(C(=O)N2CCC[C@@]2(C)c2nc3c(C)c(C)c(Br)cc3[nH]2)c(-c2cccc(Cl)c2Cl)s1 [Ex. 5.272]
7	12	Cc1nc(C(=O)N2CCC[C@@]2(C)c2nc3c(C)c(C)c(Br)cc3[nH]2)c(-c2ccc(C)c(C)c2)s1 [Ex. 5.273]
5	6	COc1cccc(-c2sc(C)nc2C(=O)N2CCC[C@@]2(C)c2nc3c(C)c(C)c(Br)cc3[nH]2)c1 [Ex. 5.275]
3	8	Cc1nc(C(=O)N2CCC[C@@]2(C)c2nc3c(C)c(C)c(Br)cc3[nH]2)c(-c2ccc(F)cc2)s1 [Ex. 5.276]
22	31	Cc1ccc(-c2ncccn2)c(C(=O)N2CCC[C@@]2(C)c2nc3cccc(C)c3[nH]2)c1 [Ex. 5.278]
36	16	COc1cc2nc([C@]3(C)CCCN3C(=O)c3cc(C)ccc3-c3ncccn3)[nH]c2cc1OC [Ex. 5.280]

SMILES	IC50 [1] [nM]	IC50 [2] [nM]
Cc1cc(C(=O)N2CCC[C@@]2(C)c2nc3c(C)c(Cl)ccc3[nH]2)c(-n2nccn2)cn1 [Ex. 5.263]	56	304
